The subject of this data set is Colon cancer stem cells, i.e., CD133^+HICD44^+HI cells. The experiment in a line: Colon cancer stem cell tumor xenograft in NOD/SCID mice. The data set is classed as in vivo. How it is done:
FIG. 3. miR-129 suppresses colorectal cancer cell growth and induces cell cycle arrest. (a) HCT116, […] and SW480 cells were transfected with either miR-129 or negative miRNA, and cell numbers were measured with WST-1 assay at days 1, 3 and 5. Cell cycle analysis was performed to determine the impact of miR-129. The representative flow cytometry pattern was shown in (b) and the G1/S and G2/S ratios were shown in (c) (n=3). (d) Colon cancer stem cells, i.e., CD133^+HICD44^+HI cells were subcutaneously injected into NOD/SCID mice (1×10^4 cells). Mice were treated with either (top left) control lentiviral GFP vector and lentiviral miR-129 expressing construct (n=5) or (top right) mice were injected with negative miRNA (n=5) or miR-129 precursor (n=5) at 1.25 nmol per injection. Tumor sizes were then analyzed 7 weeks after initial treatment (lentiviral or injection). […] Scale bar: 1 cm. (bottom left) Quantitative analysis of colon cancer stem cells in tumor xenografts transfected with lentiviral miR-129 or control constructs reveal a significant reduction in tumor size. (bottom right) Quantitative analysis of colon cancer stem cells in tumor xenografts transfected with control and miR-129 precursor RNA.

Here are results for one substance from patent publication US10697020B2, “MicroRNA-129 as a biomarker for colorectal cancer” (THE RESEARCH FOUNDATION FOR THE STATE UNIVERSITY OF NEW YORK, priority 2013, dated 2020).

Regarding “miR-129: nucleic acid having a sequence of CUUUUUGCGGUCUGGGCUUGC (SEQ ID NO. 1); miR-129 precursor from Ambion used (chemistry not given here; listed as Homo sapiens)”, the tumor size result by setting is: (delivery via lentiviral miR-129 expressing construct vs control lentiviral GFP vector, 7 weeks) “reduces tumor size significantly”; (injection of miR-129 precursor at 1.25 nmol per injection vs negative miRNA, 7 weeks after initial treatment) “reduces tumor size significantly”.
